13 compounds from patent publication US8299048B2, “Hexahydrocyclopentyl[f]indazole sulfonamides and derivatives thereof as selective glucocorticoid receptor modulators” (Merck Sharp & Dohme Corp., priority 2008, dated 2012) can be followed below.

Test [1] deals with T1, human GR (Homo sapiens, UniProt P04150).
T1 sequence (P04150 1-777): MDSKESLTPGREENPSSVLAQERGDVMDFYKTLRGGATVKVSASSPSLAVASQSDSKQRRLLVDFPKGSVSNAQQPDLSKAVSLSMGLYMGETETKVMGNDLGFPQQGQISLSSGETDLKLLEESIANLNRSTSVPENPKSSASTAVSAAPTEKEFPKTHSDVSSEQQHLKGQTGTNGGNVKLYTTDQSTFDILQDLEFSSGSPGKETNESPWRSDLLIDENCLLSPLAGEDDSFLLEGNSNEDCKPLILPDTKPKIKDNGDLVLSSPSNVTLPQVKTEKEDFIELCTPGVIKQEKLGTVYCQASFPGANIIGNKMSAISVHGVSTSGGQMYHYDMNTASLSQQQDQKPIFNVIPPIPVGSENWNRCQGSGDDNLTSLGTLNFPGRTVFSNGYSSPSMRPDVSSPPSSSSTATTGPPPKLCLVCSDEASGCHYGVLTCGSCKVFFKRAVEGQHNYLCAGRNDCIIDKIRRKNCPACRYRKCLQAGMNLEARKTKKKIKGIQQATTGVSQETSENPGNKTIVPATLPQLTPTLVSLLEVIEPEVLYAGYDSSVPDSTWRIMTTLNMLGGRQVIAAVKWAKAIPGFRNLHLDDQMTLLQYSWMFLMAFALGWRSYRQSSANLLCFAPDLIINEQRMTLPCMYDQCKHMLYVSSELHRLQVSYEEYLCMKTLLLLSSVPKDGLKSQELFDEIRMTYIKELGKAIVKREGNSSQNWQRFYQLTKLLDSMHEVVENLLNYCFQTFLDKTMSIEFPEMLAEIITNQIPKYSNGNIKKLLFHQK
The test can be described thus: Transrepression Assay (GITAR), TNFα-β-lactamase reporter in U937 cells. It counts as cell-based. Also noted: U937 cells contain an endogenous glucocorticoid receptor (GR); endogenous in cells; host or cells: U937 cells stably transfected with the TNF-alpha promoter/beta-lactamase reporter. The settings on record: for GITAR > GRAMM % SEP: GITAR Emax minus GRAMMER Emax; for EC50: U937 cells, inflection point, read-out: Transrepression U937 Cells GITAR IP. The essentials:
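U937 cells stably carrying a TNF-α promoter–β-lactamase reporter, with endogenous GR, are preincubated with compound 30–45 min at 37 °C, then stimulated with PMA (5 ng/ml final) and LPS (100 ng/ml final) overnight (~18 hr). β-Lactamase is read with CCF2-AM substrate; repression by 100 nM dexamethasone defines 100%.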

The target of test [2] is T1, human GR. Kind of test: Trans-Activation Modulation of Glucocorticoid Receptor (GRAMMER), MMTV-LUC reporter, agonist mode. More on the design: endogenous in cells. It counts as cell-based. The following applies: for Emax: A549, A549 cells, maximum activity, read-out: Transactivation A549 Cells GRAMMER Emax; for EC50: A549 cells, inflection point, read-out: Transactivation A549 Cells GRAMMER IP. The essentials: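 Readout is luciferase from a modified MMTV LTR promoter after 24 h compound exposure alongside 10 nM dexamethasone (100% activity reference), DMSO ≤1%.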

Setting [3] is: U-937, U937 cells, maximum activity, read-out: Transrepression U937 Cells GITAR Emax.
[4] abbreviates: U-937, activity repressed by 100 nM dexamethasone alone set as 100%, read-out: maximal activity in the transrepression (GITAR) assay.

As for `C[C@]12Cc3cnn(-c4ccc(F)cc4)c3C=C1CC[C@@H]2CN(Cc1cccnn1)S(=O)(=O)CC(F)(F)F` [Example 132, 2,2,2-trifluoro-N-{[(4αR,5S)-1-(4-fluorophenyl)-4α-methyl-1,4,4α,5,6,7-hexahydrocyclopenta[f]indazol-5-yl]methyl}-N-(pyridazin-3-ylmethyl)ethanesulfonamide], the “GITAR > GRAMM % SEP” value on human GR [1] turned out to be 50.8%. Also, the EC50 at human GR [1] was found to be 791 nM; on human GR [2], 422 nM. Moreover, the results for the Emax at human GR [1] (setting [3]), on human GR [1] (setting [4]) and at human GR [2] were 74%, over 5% and 23.2%, respectively.
Take `C[C@]12Cc3cnn(-c4ccc(F)cc4)c3C=C1CC[C@@H]2CN(CC(O)C(F)F)S(=O)(=O)CC(F)(F)F` (stereo partly drawn) [Example 133, N-(3,3-difluoro-2-hydroxypropyl)-2,2,2-trifluoro-N-{[(4αR,5S)-1-(4-fluorophenyl)-4α-methyl-1,4,4α,5,6,7-hexahydrocyclopenta[f]indazol-5-yl]methyl}ethanesulfonamide]: the “GITAR > GRAMM % SEP” value on human GR [1] was determined as 22.5%. In addition, the EC50 on human GR [1] amounted to 82.6 nM; at human GR [2], 67.5 nM. Moreover, the Emax at human GR [1] (setting [3]) was 95.9%; at human GR [1] (setting [4]) it was over 5%; at human GR [2], 73.4%.
For the compound `C[C@]12Cc3cnn(-c4ccc(F)cc4)c3C=C1CC[C@@H]2CN(CC(OS(=O)(=O)CC(F)(F)F)C(F)F)S(=O)(=O)CC(F)(F)F` (stereo partly drawn) [Example 134, 2,2-difluoro-1-({{[(4αR,5S)-1-(4-fluorophenyl)-4α-methyl-1,4,4α,5,6,7-hexahydrocyclopenta[f]indazol-5-yl]methyl}[(2,2,2-trifluoroethyl)sulfonyl]amino}methyl)ethyl 2,2,2-trifluoroethanesulfonate], on human GR [1], the “GITAR > GRAMM % SEP” value stood at 4.7%. The EC50 at human GR [1] was found to be 243 nM; on human GR [2] it was 216 nM. For the same compound, the results for the Emax on human GR [1] (setting [3]), at human GR [1] (setting [4]) and at human GR [2] were 93.8%, over 5% and 89.2%, respectively.
Take `C[C@]12Cc3cnn(-c4ccc(F)cc4)c3C=C1CC[C@@H]2CN(CC1(O)CC1)S(=O)(=O)CC(F)(F)F` [Example 135, 2,2,2-trifluoro-N-{[(4αR,5S)-1-(4-fluorophenyl)-4α-methyl-1,4,4α,5,6,7-hexahydrocyclopenta[f]indazol-5-yl]methyl}-N-[(1-hydroxycyclopropyl)methyl]ethanesulfonamide]: the “GITAR > GRAMM % SEP” value at human GR [1] stood at 19.2%. For the same compound, the EC50 came to 258 nM on human GR [1] and 127 nM at human GR [2]. The Emax on human GR [1] (setting [3]) is 87.9%; at human GR [1] (setting [4]), over 5%; on human GR [2], 68.8%.
For the compound `C[C@]12Cc3cnn(-c4ccc(F)cc4)c3C=C1CC[C@@H]2CN(CC1(OS(=O)(=O)CC(F)(F)F)CC1)S(=O)(=O)CC(F)(F)F` [Example 136, 1-({{[(4αR,5S)-1-(4-fluorophenyl)-4α-methyl-1,4,4α,5,6,7-hexahydrocyclopenta[f]indazol-5-yl]methyl}[(2,2,2-trifluoroethyl)sulfonyl]amino}methyl)cyclopropyl 2,2,2-trifluoroethanesulfonate], the “GITAR > GRAMM % SEP” value on human GR [1] worked out at 42.0%. The EC50 is 441 nM at human GR [1] and 279 nM on human GR [2]. Moreover, the figures for the Emax on human GR [1] (setting [3]), on human GR [1] (setting [4]) and at human GR [2] were 101%, over 5% and 58.8%, respectively.
Regarding `C[C@]12Cc3cnn(-c4ccccc4)c3C=C1CC[C@@H]2CN(CCc1ccccc1F)S(=O)(=O)CC(F)(F)F` [Example 137, 2,2,2-trifluoro-N-[2-(2-fluorophenyl)ethyl]-N-{[(4αR,5S)-4α-methyl-1-phenyl-1,4,4α,5,6,7-hexahydrocyclopenta[f]indazol-5-yl]methyl}ethanesulfonamide], the “GITAR > GRAMM % SEP” value at human GR [1] is 14.0%. Moreover, the EC50 is 324 nM at human GR [1] and 143 nM on human GR [2]. For the same compound, the Emax at human GR [1] (setting [3]) was 87.6%; on human GR [1] (setting [4]), over 5%; on human GR [2] it was 73.6%.
Regarding `C[C@]12Cc3cnn(-c4ccccc4)c3C=C1CC[C@@H]2CN(CCc1ccccn1)S(=O)(=O)CC(F)(F)F` [Example 138, 2,2,2-trifluoro-N-{[(4αR,5S)-4α-methyl-1-phenyl-1,4,4α,5,6,7-hexahydrocyclopenta[f]indazol-5-yl]methyl}-N-(2-pyridin-2-ylethyl)ethanesulfonamide], at human GR [1], the “GITAR > GRAMM % SEP” value is reported as 5.6%. Besides, the figures for the EC50 on human GR [1] and at human GR [2] were 433 nM and 203 nM, respectively. Besides, the values for the Emax on human GR [1] (setting [3]), on human GR [1] (setting [4]) and at human GR [2] were 83.7%, over 5% and 78.1%, respectively.
For the compound `COc1ccccc1CCN(C[C@H]1CCC2=Cc3c(cnn3-c3ccccc3)C[C@@]21C)S(=O)(=O)CC(F)(F)F` [Example 139, 2,2,2-trifluoro-N-[2-(2-methoxyphenyl)ethyl]-N-{[(4αR,5S)-4α-methyl-1-phenyl-1,4,4α,5,6,7-hexahydrocyclopenta[f]indazol-5-yl]methyl}ethanesulfonamide], the “GITAR > GRAMM % SEP” value at human GR [1] is on record as 1.7%. Further, the figures for the EC50 at human GR [1] and on human GR [2] were 798 nM and 262 nM, respectively. In addition, the Emax at human GR [1] (setting [3]) is 72.4%; on human GR [1] (setting [4]) it was over 5%; at human GR [2], 70.7%.
In the case of `C[C@]12Cc3cnn(-c4ccccc4)c3C=C1CC[C@@H]2CN(CCc1ccccn1)S(=O)(=O)Cc1cccnc1` [Example 140, N-{[(4αR,5S)-4α-methyl-1-phenyl-1,4,4α,5,6,7-hexahydrocyclopenta[f]indazol-5-yl]methyl}-1-pyridin-3-yl-N-(2-pyridin-2-ylethyl)methanesulfonamide], the EC50 at human GR [1] was determined as 1570 nM; at human GR [2], 704 nM. For the same compound, the Emax on human GR [1] (setting [3]) was 37%; at human GR [1] (setting [4]) it was over 5%; on human GR [2] it was 21.3%.
Take `C[C@]12Cc3cnn(-c4ccccc4)c3C=C1CC[C@@H]2CN(CCc1ccccc1O)S(=O)(=O)Cc1cccnc1` [Example 141, N-[2-(2-hydroxyphenyl)ethyl]-N-{[(4αR,5S)-4α-methyl-1-phenyl-1,4,4α,5,6,7-hexahydrocyclopenta[f]indazol-5-yl]methyl}-1-pyridin-3-ylmethanesulfonamide]: the “GITAR > GRAMM % SEP” value at human GR [1] is on record as 39.7%. The EC50 was 400 nM at human GR [1] and 441 nM on human GR [2]. Also, the Emax on human GR [1] (setting [3]) was 62.2%; on human GR [1] (setting [4]), over 5%; on human GR [2], 22.6%.
Turning to `C[C@]12Cc3cnn(-c4ccc(F)cc4)c3C=C1CC[C@@H]2CN(CC(O)c1ccccn1)S(=O)(=O)CC(F)(F)F` (stereo partly drawn) [Example 142, 2,2,2-trifluoro-N-{[(4αR,5S)-1-(4-fluorophenyl)-4α-methyl-1,4,4α,5,6,7-hexahydrocyclopenta[f]indazol-5-yl]methyl}-N-(2-hydroxy-2-pyridin-2-ylethyl)ethanesulfonamide], the “GITAR > GRAMM % SEP” value at human GR [1] is given as 14.4%. Besides, the figures for the EC50 on human GR [1] and on human GR [2] were 140 nM and 123 nM, respectively. Also, the Emax at human GR [1] (setting [3]) is 92.5%; at human GR [1] (setting [4]) it was over 5%; at human GR [2], 78.1%.
In the case of `C[C@]12Cc3cnn(-c4ccc(F)cc4)c3C=C1CC[C@@H]2CN(CC(O)c1cccnc1)S(=O)(=O)CC(F)(F)F` (stereo partly drawn) [Example 143, 2,2,2-trifluoro-N-{[(4αR,5S)-1-(4-fluorophenyl)-4α-methyl-1,4,4α,5,6,7-hexahydrocyclopenta[f]indazol-5-yl]methyl}-N-(2-hydroxy-2-pyridin-3-ylethyl)ethanesulfonamide], on human GR [1], the “GITAR > GRAMM % SEP” value was found to be 7.7%. Besides, the EC50 came out at 225 nM at human GR [1] and 252 nM on human GR [2]. In addition, the results for the Emax at human GR [1] (setting [3]), at human GR [1] (setting [4]) and at human GR [2] were 91.2%, over 5% and 83.5%, respectively.
Regarding `C[C@]12Cc3cnn(-c4ccc(F)cc4)c3C=C1CC[C@@H]2CN(CC(O)c1ccncc1)S(=O)(=O)CC(F)(F)F` (stereo partly drawn) [Example 144, 2,2,2-trifluoro-N-{[(4αR,5S)-1-(4-fluorophenyl)-4α-methyl-1,4,4α,5,6,7-hexahydrocyclopenta[f]indazol-5-yl]methyl}-N-(2-hydroxy-2-pyridin-4-ylethyl)ethanesulfonamide], the “GITAR > GRAMM % SEP” value at human GR [1] turned out to be 18.1%. For the same compound, the EC50 at human GR [1] was 334 nM; at human GR [2] it was 397 nM. For the same compound, the Emax is 91.6% at human GR [1] (setting [3]), over 5% on human GR [1] (setting [4]) and 73.6% at human GR [2].
